Structures can show the parent of a compound that is named as a salt.
What was measured:
[1] = system: RAW 264.7 murine macrophage cells; assay: LPS-induced inflammatory cytokine levels (IL-1β, IL-6, TNFα) by ELISA in RAW 264.7 cells; type: cell-based; settings: for IL-1β level in presence of nAChR antagonist / IL-6 level in presence of nAChR antagonist / TNFα level in presence of nAChR antagonist: antagonist 30 minutes before varenicline and LPS, compared to varenicline-treated groups
Method: RAW 264.7 murine macrophage cells maintained in culture media supplemented with heat inactivated FBS (10%) and penicillin (100 U/ml) and streptomycin (100 μg/ml) at 37° C. in a 5% CO2 incubator were used during the experimental studies. The cells (500,000/well) were seeded in 48-well culture plates after detachment with scraping incubated for 24 h in serum-free media for reattachment to the surface. In the first group, the cells were treated with LPS at increasing concentrations to determine the effective concentration at which cytokines are released. In the second group, the cells were pretreated with varenicline tartarate with increasing concentrations in presence of LPS to determine effective varenicline concentration on LPS-induced cytokine levels. Additionally, the anti-inflammatory effect of varenicline was compared with that of dexamethasone. In the third group, a non-selective nicotinic ACh receptor antagonist mecamylamine hydrochloride and a selective α7nAChR antagonist methyllycaconitine citrate were applied prior to varenicline and LPS administration in order to investigate the involvement of nicotinic receptors.
The inflammatory response of macrophage cells was evaluated by the change in inflammatory cytokine levels (IL-1β, IL-6 and TNFα) after 24 hours. In other groups where the effect of varenicline will be investigated, the LPS concentration, which triggers the increase in all cytokines determined in the first group and employed for the induction of inflammatory response. Increasing concentrations of varenicline were administered 30 minutes before LPS administration, LPS-induced cytokine levels were analyzed at the end of 24-hour protocol and the effective concentration on cytokine levels were determined in the second group. The effective concentration of varenicline was used in the third group in which the receptor-mediated effects investigated.
(§1) Antagonist drugs was applied 30 minutes before varenicline and LPS applications. Thus, the role of α7nAChRs and activation of the cholinergic anti-inflammatory pathway was determined at the end of 24-hour protocol by examining LPS-induced inflammatory cytokine levels (IL-1β, IL-6 and TNFα) in addition to 40 different cytokines and chemokines.
(§2) The results are as follows for the application of the invention. (1) Cytokine levels (IL-1β, IL-6 and TNFα) examined by the ELISA method were increased at the end of 24-hour protocol after induced by LPS in RAW 264.7 cells.

RAW 264.7 macrophages = assay: LPS-induced cytokine and chemokine panel in RAW 264.7 macrophages; type: cell-based, mouse
Method: FIGS. 6A-6C. Effects of varenicline on LPS-induced 14 mouse cytokines levels in RAW 264.7 macrophages.
as §1, §2

[2] = system: RAW 264.7 murine macrophage cells; assay: LPS-induced cell proliferation; type: cell-based
Method: (§3) Here, in the application subject invention, the anti-inflammatory potential of varenicline, which is used in the treatment of smoking cessation, was determined for the first time by suppressing increased cytokine levels in inflammatory conditions. According to the current study, the anti-inflammatory activity of varenicline is not limited to its suppression of cytokine levels, but is also associated with suppressed proliferation and macrophage migration rates (FIGS. 4A-6C).
FIGS. 4A-4B. Effects of varenicline on LPS-induced cell proliferation in the presence or absence of nAChR antagonists.
(§4) This invention points out repurposing of varenicline and provides mechanical insights about the effects of varenicline on α7nAChR-mediated activation of cholinergic anti-inflammatory pathway (CAP), cell proliferation, and migration in the in vitro inflammation model induced by LPS.

[3] = system: RAW 264.7 murine macrophage cells; assay: LPS-induced macrophage migration; type: cell-based
Method: as §3
FIGS. 5A-5B. Effects of varenicline on LPS-induced cell migration in the presence or absence of nAChR antagonists
as §4

α4β2nAChRs = α4β2nAChRs (Homo sapiens, UniProt P17787+P43681); settings: central nervous system; cited from earlier work
Chain of α4β2nAChRs (P43681 29-627 limits assumed): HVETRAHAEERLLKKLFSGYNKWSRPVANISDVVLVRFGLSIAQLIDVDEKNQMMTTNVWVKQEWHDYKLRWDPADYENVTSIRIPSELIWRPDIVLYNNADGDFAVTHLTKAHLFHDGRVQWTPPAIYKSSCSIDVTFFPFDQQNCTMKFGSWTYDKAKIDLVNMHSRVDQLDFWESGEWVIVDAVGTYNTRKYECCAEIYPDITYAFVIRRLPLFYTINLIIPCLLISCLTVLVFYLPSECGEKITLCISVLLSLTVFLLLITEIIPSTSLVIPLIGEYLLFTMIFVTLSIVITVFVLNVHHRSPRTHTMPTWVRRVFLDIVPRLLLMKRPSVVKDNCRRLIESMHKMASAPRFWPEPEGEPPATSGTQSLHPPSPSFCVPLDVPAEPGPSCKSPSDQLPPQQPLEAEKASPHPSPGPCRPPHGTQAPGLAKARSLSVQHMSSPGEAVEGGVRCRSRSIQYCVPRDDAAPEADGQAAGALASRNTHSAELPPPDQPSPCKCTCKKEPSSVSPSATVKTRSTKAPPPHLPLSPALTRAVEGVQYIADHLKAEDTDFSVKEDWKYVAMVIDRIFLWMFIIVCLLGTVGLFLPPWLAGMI
Chain of α4β2nAChRs (P17787 26-502): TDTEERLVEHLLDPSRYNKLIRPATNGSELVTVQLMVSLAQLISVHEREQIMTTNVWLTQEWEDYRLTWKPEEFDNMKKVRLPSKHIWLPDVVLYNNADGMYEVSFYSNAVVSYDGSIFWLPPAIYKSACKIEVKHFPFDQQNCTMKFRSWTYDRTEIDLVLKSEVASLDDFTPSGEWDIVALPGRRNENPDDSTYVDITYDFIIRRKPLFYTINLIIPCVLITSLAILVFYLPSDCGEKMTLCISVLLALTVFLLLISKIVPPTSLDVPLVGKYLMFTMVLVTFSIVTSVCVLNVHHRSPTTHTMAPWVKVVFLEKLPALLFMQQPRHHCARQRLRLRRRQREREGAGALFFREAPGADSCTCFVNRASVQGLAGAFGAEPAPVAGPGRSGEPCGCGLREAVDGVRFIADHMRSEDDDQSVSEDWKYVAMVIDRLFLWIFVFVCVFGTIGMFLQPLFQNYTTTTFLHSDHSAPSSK

α7nAChRs = α7nAChRs (Homo sapiens, UniProt P36544); settings: cited from earlier work
Chain of α7nAChRs (P36544 23-502): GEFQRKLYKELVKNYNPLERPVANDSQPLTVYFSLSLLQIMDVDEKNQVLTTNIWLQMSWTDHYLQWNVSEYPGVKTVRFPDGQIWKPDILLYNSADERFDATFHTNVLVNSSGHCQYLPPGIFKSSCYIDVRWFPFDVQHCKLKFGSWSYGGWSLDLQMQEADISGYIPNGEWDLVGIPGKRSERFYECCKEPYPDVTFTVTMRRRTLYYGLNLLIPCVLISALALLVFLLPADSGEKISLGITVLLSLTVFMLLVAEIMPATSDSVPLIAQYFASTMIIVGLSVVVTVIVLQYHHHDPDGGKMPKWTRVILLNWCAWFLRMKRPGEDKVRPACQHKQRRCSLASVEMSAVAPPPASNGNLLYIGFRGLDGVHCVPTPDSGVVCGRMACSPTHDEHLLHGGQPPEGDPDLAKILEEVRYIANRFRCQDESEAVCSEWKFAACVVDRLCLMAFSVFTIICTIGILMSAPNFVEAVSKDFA

[4] = system: transient middle cerebral artery ischemia model; settings: mice, treatment for one week, cited from earlier work
[5] = system: emphysema induced by porcine pancreatic elastase; settings: mice, PPE emphysema, cited from earlier work
smokers = settings: 3 months of treatment; cited from earlier work
[6] = system: RAW 264.7 macrophage cells stimulated with LPS; settings: via α7nAChR activation; LPS-stimulated RAW 264.7; cited from earlier work
[7] = system: LPS-activated RAW264.7 macrophage cell cultures; settings: cited from earlier work
sepsis = settings: cited from earlier work
[8] = varenicline 30 minutes before LPS, 24-hour protocol, compared to the LPS group

c1cnc2cc3c(cc2n1)[C@@H]1CNC[C@H]3C1 [Varenicline, varenicline]
IL-1β level [1, 8]: significantly decreased
IL-6 level [1, 8]: significantly decreased
TNFα level [1, 8]: significantly decreased
LPS-induced 14 different cytokines and chemokines (G-CSF, GM-CSF, IL-1, IL-6, IL-27, IL-1ra, IP-10, MCP-1, MIP-1, RANTES, TNF α) (RAW 264.7 macrophages): significantly decreased
proliferation rate [2]: suppressed
macrophage migration rate [3]: suppressed
effect on α4β2nAChRs (α4β2nAChRs): partial agonistic effect
effect on α7nAChRs (α7nAChRs): potent and complete agonist
use of damaged forelimbs [4]: increased
inflammation in the corpus striatum ([4]; immunohistochemical analysis): decreased
inflammation ([5]; immunohistochemical analysis): reduce
number of T cells in tissue ([5]; with activation of α7nAChR): significantly reduced
number of macrophages in tissue ([5]; with activation of α7nAChR): significantly reduced
number of neutrophils in tissue ([5]; with activation of α7nAChR): significantly reduced
atherosclerosis (smokers): reduced
endothelial damage (smokers): reduced
oxidative stress (smokers): reduced

CN1CCCC1c1cccnc1 (stereo not shown) [nicotine]
TNFα levels [6]: decrease

methyllycaconitine citrate [MLA]
IL-1β level in presence of nAChR antagonist [1]: significantly increased
IL-6 level in presence of nAChR antagonist [1]: significantly increased
TNFα level in presence of nAChR antagonist [1]: significantly increased

COc1ccc(/C=C2\CCCN=C2c2cccnc2)c(OC)c1 [GTS-21]
HMGB-1 level [7]: significantly reduces
TNFα level [7]: significantly reduces
cytokine levels that increased due to inflammation (sepsis): decreased
life span of experimental animals (sepsis): extended

CNC1(C)C2CCC(C2)C1(C)C (stereo not shown) [MEC, mecamylamine hydrochloride]
IL-1β level in presence of nAChR antagonist [1]: significantly increased
IL-6 level in presence of nAChR antagonist [1]: significantly increased
TNFα level in presence of nAChR antagonist [1]: significantly increased
